Data from US20250388592A1 (REMYND N.V., priority 2022, published 2025).

Test system: M17_3TAU(P301L) cells
Experiment: TAU-induced cytotoxicity (LDH) in the neuroblastoma tauopathy model
Format: cell-based
Details: Homo sapiens, 168 h, inhibition of TAU-induced toxicity, 7 days retinoic acid differentiation, LDH readout
Source text: A TAU expression plasmid was constructed by sub-cloning the cDNA encoding for human TAU-P301L protein, wherein proline at position 301 is substituted by a leucine residue, into mammalian expression vector pcDNA3.1 resulting in the plasmid pcDNA3.1-TAUP301L. Plasmids pcDNA3.1 and pcDNA3.1-TAU P301L were transfected into human neuroblastoma cells (BE-M17; ATCC No. CRL-2267™) using lipofectamine reagent and subsequently, independent clonal cell lines with the plasmids stably integrated into the genome were selected by antibiotic resistance selection (Geneticin (G418)), resulting in cell lines M17.pcDNA3 and M17_3TAUP301L. Expression of the TAUP301 L gene in the M17_3TAUP301 L cells was confirmed by Western blot analysis.
Differentiation of the cells with RA leads to phosphorylation and subsequent aggregation of TAU, inducing a tauopathy in these cells. Cytotoxicity of cells was measured by quantification of lactate dehydrogenase (LDH) levels. In dead cells LDH is leaked out of the cells into the medium due to a loss of plasma-membrane integrity.
Briefly, 3 days preceding the experiment pre-cultures of M17.pcDNA3 and M17_3TAU(P301L) cells were prepared, starting from a stock culture, at a density of 50.000-100.000 cells/cm2 in detection medium (Optimem Reduced Serum without phenol red (Gibco, Cat. 31985-047) supplemented with 1% fetal calf serum (FCS), 1 mM sodium pyruvate, 1×non-essential amino acids (NEAA), 500 μg/ml G418 and 0.5×antibiotic/antimycotic (ABAM)). At the day of the experiment these precultures were diluted to ˜[…] in detection medium without FCS and 60 μL of this suspension is dispensed per well into a 96-well microtiter plate. After 3 hours of incubation at 37° C./5% C02 an equal volume of detection medium containing 2.5 μM RA was added and subsequently incubated for 7 days at 37° C./5% CO2. After 7 days, LDH activity was determined using the Promega Cytotox 96 Non-Radioactive cytotoxicity assay (Cat. G1780), according the manufacturer's instructions. Cytotoxicity is measured as the ratio of LDH increase in the supernatant divided by the LDH increase in the total cell suspension (sum of the LDH measured in cells and supernatant). Toxicity was determined after 7 days of differentiation with retinoic acid in M17_3TAU(P301 L) cells compared to M17.pcDNA3 cells.
The M17_3TAU(P301L) cell line makes it possible to assess the ability of novel compounds to inhibit TAU-induced cytotoxicity. […] Compounds were tested for their ability to hamper TAU-induced toxicity at different concentrations, ranging from low non-effective concentrations to high potent concentrations. Afterwards, the dose-dependent inhibition curve was used to calculate their EC50 (Table 3B).

Compound | EC50
O=C(NC1CCC(F)(F)CC1)N1CC2(CN(Cc3ncccc3C(F)(F)F)C2)C1 [Cpd B206] | 0.031 µM
Cc1cccc(CCN2CC3(C2)CN(C(=O)Cc2ccc(Cl)cc2)C3)n1 [Cpd B051, 2-(4-chlorophenyl)-1-(6-(2-(6-methylpyridin-2-yl)ethyl)-2,6-diazaspiro[3.3]heptan-2-yl)ethanone] | 0.0307 µM
O=C(Cc1ccc(Cl)cc1)N1CC2(CN(Cc3ncc(Cl)cn3)C2)C1 [Cpd B039, 2-(4-chlorophenyl)-1-(6-((5-chloropyrimidin-2-yl)methyl)-2,6-diazaspiro[3.3]heptan-2-yl)ethanone] | 0.0563 µM
CC(C)CCN1CC2(C1)CN(C(=O)Cc1ccc(Cl)cc1)C2 [Cpd B053, 2-(4-chlorophenyl)-1-(6-isopentyl-2,6-diazaspiro[3.3]heptan-2-yl)ethanone] | 0.00507 µM
Cn1cc(Cl)c(CN2CC3(C2)CN(C(=O)NC2CCC(F)(F)CC2)C3)n1 [Cpd B209] | 0.0152 µM
O=C(NCC1CCC(F)(F)CC1)N1CC2(CN(Cc3ccc(F)cc3C(F)(F)F)C2)C1 [Cpd B201] | 0.00355 µM
Cc1c(Cl)c(CN2CC3(C2)CN(C(=O)NCC2CCC(F)(F)CC2)C3)nn1C [Cpd B203] | 0.0155 µM
Cc1cccnc1CN1CC2(C1)CN(S(=O)(=O)Cc1ccc(F)cc1)C2 [Cpd B213] | 0.0146 µM
O=C(OCC1CCOCC1)N1CC2(CN(Cc3ccc(F)cc3)C2)C1 [Cpd B128, (tetrahydro-2H-pyran-4-yl)methyl 6-(4-fluorobenzyl)-2,6-diazaspiro[3.3]heptane-2-carboxylate] | 0.126 µM
Cc1c(CN2CC3(C2)CN(C(=O)CC2CCC(F)(F)CC2)C3)cnn1C [Cpd B461] | 0.0565 µM
COc1cccc(CNC2CC3(C2)CC(Nc2nc(Cc4ccc(Cl)cc4)ns2)C3)c1 (centres unmarked) [Cpd B310, N-(3-(4-chlorobenzyl)-1,2,4-thiadiazol-5-yl)-N′-(3-methoxybenzyl) spiro[3.3]heptane-2,6-diamine] | 0.0046 µM
CN(Cc1ccccc1)C1CC2(CC(Nc3nc(Cc4ccc(F)cc4)ns3)C2)C1 (centres unmarked) [Cpd B302, N-benzyl-N′-(3-(4-fluorobenzyl)-1,2,4-thiadiazol-5-yl)-N-methyl spiro[3.3]heptane-2,6-diamine] | 0.0009 µM
Cc1cccnc1CN1CC2(C1)CN(C(=O)NC1CC(F)(F)C1)C2 [Cpd B170] | 3.45 µM
O=C(CC1CCC(F)(F)CC1)N1CC2(CN(Cc3ncccc3Cl)C2)C1 [Cpd B114] | 0.0136 µM
Cc1cccnc1CN1CC2(C1)CN(C(=O)CC1CCCCC1)C2 [Cpd B082] | 0.0279 µM
O=C(CC1CCC(F)(F)CC1)N1CC2(CN(Cc3ccc(F)cn3)C2)C1 [Cpd B115] | 0.0413 µM
COc1ccc(CCNC2CC3(C2)CC(Nc2nc(Cc4ccc(Cl)cc4)ns2)C3)cc1 (centres unmarked) [Cpd B333, N-(3-(4-chlorobenzyl)-1,2,4-thiadiazol-5-yl)-N′-(4-methoxyphenethyl) spiro[3.3]heptane-2,6-diamine] | 0.002 µM
O=C(OCC1CCC(F)(F)CC1)N1CC2(CN(Cc3c(F)cccc3C(F)(F)F)C2)C1 [Cpd B448] | 0.12 µM
Cc1nn(C)cc1CN1CC2(C1)CN(C(=O)NCc1ccc(F)cc1)C2 [Cpd B426] | 0.85 µM
COc1ncccc1CN1CC2(C1)CN(C(=O)NCc1ccc(F)cc1)C2 [Cpd B431] | 0.492 µM
Cn1cc(Cl)c(CN2CC3(C2)CN(C(=O)NCc2ccc(F)cc2)C3)n1 [Cpd B444] | 0.167 µM
O=C(Nc1ccc(Cl)cc1)N1CC2(CN(Cc3ccc(F)cc3)C2)C1 [Cpd B187] | 0.00915 µM
O=C(NCC1CCC(F)(F)CC1)N1CC2(CN(Cc3ncccc3F)C2)C1 [Cpd B199] | 0.0539 µM
O=C(OC1CCC(F)(F)CC1)N1CC2(CN(Cc3ccc(Cl)cc3F)C2)C1 [Cpd B150] | < 0.00019 µM
Cc1cccc(CN2CC3(C2)CN(C(=O)Cc2ccc(F)cc2)C3)n1 [Cpd B017, 2-(4-Fluoro-phenyl)-1-[6-(6-methyl-pyridin-2-ylmethyl)-2,6-diaza-spiro[3.3]hept-2-yl]-ethanone] | 0.0267 µM
O=C(Nc1ccc(OC(F)F)cc1)N1CC2(CN(Cc3ccc(F)cc3)C2)C1 [Cpd B465] | 0.0381 µM
